Experiments:
Assay in all cases: Postemergence foliar-applied herbicidal mixtures, weeds common to row crops
Type in all cases: in vivo
[1] = tested on: SORHA Sorghum halepense (L.) Pers. (Johnsongrass)
Description: (§1) Evaluation of Postemergence Foliar-Applied Herbicidal Mixtures for Control of Weeds Common to Row Crops such as Corn and Soybeans. Seeds or nutlets of the desired test plant species were planted in a soil matrix prepared by mixing a loam or sandy loam soil (e.g., 28.6 percent silt, 18.8 percent clay, and 52.6 percent sand, with a pH of about 5.8 and an organic matter content of about 1.8 percent) and calcareous grit in an 80 to 20 ratio. The soil matrix was contained in plastic pots with a surface area of 84.6 cm^2 and a volume of 560 cubic centimeters (cm^3). When required to ensure good germination and healthy plants, a fungicide treatment and/or other chemical or physical treatment was applied. The plants were grown for 7-31 d in a greenhouse with an approximate 15 h photoperiod which was maintained at about 23-29° C. during the day and 22-28° C. during the night. Nutrients (Peters Excel® 15-5-15 5-Ca 2-Mg) and water were added on a regular basis and supplemental lighting was provided with overhead metal halide 1000-Watt lamps as necessary. The plants were employed for testing when they reached the first, second, or third true leaf stage.
(§2) Treatment requirements were calculated based upon the rates being tested, the concentration of active ingredient or acid equivalent in the formulation, and a 12 mL application volume at a rate of 187 L/ha.
(§3) Treatments consisted of the potassium (K^+) salt of 4-amino-3-chloro-6-(4-chloro-2-fluoro-3-methoxyphenyl)-pyridine-2-carboxylic acid (Cmpd 4) formulated as a soluble liquid (SL), the propargyl ester of 4-amino-3-chloro-6-(4-chloro-2-fluoro-3-methoxyphenyl)-pyridine-2-carboxylic acid (Cmpd 2) as technical grade material, or the benzyl ester of 4-amino-3-chloro-6-(4-chloro-2-fluoro-3-methoxyphenyl)-pyridine-2-carboxylic acid (Cmpd 3) as technical grade material and quizalofop-p-ethyl (Assure® II) alone and in combination. Forms of compound of formula (I) and quizalofop-P-ethyl were applied on an acid equivalent basis.
(§4) For treatments comprised of formulated compounds, measured amounts of compounds were placed individually in 25 mL glass vials and diluted in a volume of 1.5% (v/v) Agri-Dex® crop oil concentrated to obtain 6× stock solutions. […] Application solutions were prepared by adding an appropriate amount of each stock solution (typically 2 mL) and diluted to the appropriate final concentrations with the addition of an appropriate amount of an aqueous mixture of 1.5% (v/v) crop oil concentrate and water so that the final spray solutions contained 1.25+/−0.05% (v/v) crop oil concentrate.
(§5) For treatments comprised of formulated and technical compounds, weighed amounts of the technical materials were placed individually in 25 mL glass vials and dissolved in a volume of 97:3 v/v acetone/DMSO to obtain 6× stock solutions, and measured amounts of the formulated compounds were placed individually in 25 mL glass vials and diluted in a volume of 1.5% (v/v) crop oil concentrate or water to obtain 6× stock solutions. […] Application solutions were prepared by adding an appropriate amount of each stock solution (e.g., 2 mL) and diluted to the appropriate final concentrations with the addition of an appropriate amount of an aqueous mixture of 1.5% (v/v) crop oil concentrate and water so that the final spray solutions contained 1.25% (v/v) crop oil concentrate. When required, additional water and/or 97:3 v/v acetone/DMSO can be added to individual application solutions so that the final acetone and DMSO concentrations of the application solutions being compared are 16.2% and 0.5%, respectively.
(§6) All stock solutions and applications solutions were visually inspected for compound compatibility prior to application. Compound requirements are based upon a 12 mL application volume at a rate of 187 liters per hectare (L/ha). […]

[2] = tested on: OEOBI Oenothera biennis (evening primrose)
Description: as §1, §2, §3, §4, §5, §6

[3] = tested on: LOLMU Lolium multiflorum Lam. (Italian ryegrass)
Description: as §1, §2, §3, §4, §5, §6

[4] = tested on: AVEFA Avena fatua L. (wild oat)
Description: as §1, §2, §3, §4, §5, §6

[5] = tested on: DIGSA Digitaria sanguinalis (L.) Scop. (large crabgrass)
Description: as §1, §2, §3, §4, §5, §6

C#CCOC(=O)c1nc(-c2ccc(Cl)c(OC)c2F)cc(N)c1Cl [Cmpd 2, propargyl ester of 4-amino-3-chloro-6-(4-chloro-2-fluoro-3-methoxyphenyl)-pyridine-2-carboxylic acid]
Percent (%) injury rated visually 14 DAA Obs ([1]; Cmpd 2 3.75 g ae/ha): 0% | Percent (%) injury rated visually 14 DAA Obs ([1]; Cmpd 2 7.5 g ae/ha): 0% | Percent (%) injury rated visually 14 DAA Obs ([1]; Cmpd 2 15 g ae/ha): 10% | Percent (%) injury rated visually 14 DAA Obs ([2]; Cmpd 2 3.75 g ae/ha): 65%

COc1c(Cl)ccc(-c2cc(N)c(Cl)c(C(=O)OCc3ccccc3)n2)c1F [Cmpd 3, benzyl ester of 4-amino-3-chloro-6-(4-chloro-2-fluoro-3-methoxyphenyl)-pyridine-2-carboxylic acid]
Percent (%) injury rated visually 14 DAA Obs ([3]; Cmpd 3 3.75 g ae/ha): 15% | Percent (%) injury rated visually 14 DAA Obs ([3]; Cmpd 3 7.5 g ae/ha): 50% | Percent (%) injury rated visually 14 DAA Obs ([3]; Cmpd 3 15 g ae/ha): 40% | Percent (%) injury rated visually 14 DAA Obs ([4]; Cmpd 3 3.75 g ae/ha): 10% | Percent (%) injury rated visually 14 DAA Obs ([4]; Cmpd 3 7.5 g ae/ha): 0% | Percent (%) injury rated visually 14 DAA Obs ([4]; Cmpd 3 15 g ae/ha): 0% | Percent (%) injury rated visually 14 DAA Obs ([5]; Cmpd 3 3.75 g ae/ha): 40% | Percent (%) injury rated visually 14 DAA Obs ([5]; Cmpd 3 7.5 g ae/ha): 40% | Percent (%) injury rated visually 14 DAA Obs ([5]; Cmpd 3 15 g ae/ha): 35%

potassium (K^+) salt of 4-amino-3-chloro-6-(4-chloro-2-fluoro-3-methoxyphenyl)-pyridine-2-carboxylic acid [Cmpd 4]
Percent (%) injury rated visually 14 DAA Obs ([3]; Cmpd 4 3.75 g ae/ha): 0% | Percent (%) injury rated visually 14 DAA Obs ([3]; Cmpd 4 7.5 g ae/ha): 15% | Percent (%) injury rated visually 14 DAA Obs ([3]; Cmpd 4 15 g ae/ha): 40% | Percent (%) injury rated visually 14 DAA Obs ([1]; Cmpd 4 3.75 g ae/ha): 0% | Percent (%) injury rated visually 14 DAA Obs ([1]; Cmpd 4 7.5 g ae/ha): 0% | Percent (%) injury rated visually 14 DAA Obs ([1]; Cmpd 4 15 g ae/ha): 10% | Percent (%) injury rated visually 14 DAA Obs ([2]; Cmpd 4 3.75 g ae/ha): 50% | Percent (%) injury rated visually 14 DAA Obs ([2]; Cmpd 4 7.5 g ae/ha): 80% | Percent (%) injury rated visually 14 DAA Obs ([5]; Cmpd 4 3.75 g ae/ha): 20% | Percent (%) injury rated visually 14 DAA Obs ([5]; Cmpd 4 7.5 g ae/ha): 15% | Percent (%) injury rated visually 14 DAA Obs ([5]; Cmpd 4 15 g ae/ha): 40%

— patent US20140213446A1, “HERBICIDAL COMPOSITIONS AND METHODS USING COMBINATIONS OF 4-AMINO-3-CHLORO-6-(4-CHLORO-2-FLUORO-3-METHOXYPHENYL)PYRIDINE-2-CARBOXYLIC ACID OR A DERIVATIVE THEREOF AND AN ARYLOXYPHENOXY PROPIONATE ACCASE INHIBITOR HERBICIDE” (DOW AGROSCIENCES LLC, priority 2013, published 2014)
